The values that follow come from ChEMBL document CHEMBL1156324, “Purine derivatives as potent gamma-secretase modulators” (Bioorg Med Chem Lett, 2010).

Structures are written as SMILES.

One data set addresses Gamma-secretase. As to the kind of experiment: Inhibition of gamma-secretase-mediated Notch deltaE cleavage in human HeLa cells by luciferase assay. Type of data set: cell-based.
The target in data set [1] is Gamma-secretase (Homo sapiens) (UniProt Q96BI3+Q9NZ42+Q8WW43+P49768+Q92542+P49810). Nature of the data set: Selectivity ratio, IC50 for human gamma-secretase-mediated Notch deltaE cleavage to IC50 for gamma-secretase-mediated amyloid beta 42 production. Type of data set: protein-complex assay.
The nature of data set [2]: Drug level in APP-YAC transgenic mouse brain at 100 mg/kg, po after 6 hrs. To be noted: read-out: Drug uptake. Further details: dose 100 mg/kg, route oral. Type of data set: ADME, organism-based.
For another data set, the system named is Mus musculus. As to the kind of experiment: Inhibition of Abeta42 production in APP-YAC transgenic mouse brain at 100 mg/kg, po after 6 hrs. To be noted: read-out: INH. Type of data set: functional.
Data set [3] can be described thus: Drug level in APP-YAC transgenic mouse plasma at 100 mg/kg, po after 6 hrs. To be noted: read-out: Drug uptake. Also on record: dose 100 mg/kg, route oral. Type of data set: ADME, organism-based.
Data set [4] can be described thus: Activity at gamma-secretase expressed in human SH-SY5Y cells assessed as inhibition of amyloid beta 40 production by HTRF immunoassay. Type of data set: cell-based. (In TR-FRET formats the signal depends on donor and acceptor labels being close together.)
Data set [5] can be described thus: Activity at gamma-secretase expressed in human SH-SY5Y cells assessed as inhibition of amyloid beta 42 production by HTRF immunoassay. Type of data set: cell-based.

`COc1ccc(N2CCN(c3nc(Nc4cc(C(C)(C)C)ccc4C)c4c(ncn4C)n3)CC2(C)C)cc1`: the values for the IC50 (against Gamma-secretase; in data set [4]; in data set [5]) were more than 50000 nM, 350 nM and 21 nM, respectively. Also, the Ratio IC50 in data set [1] was more than 2400. The concentration at 6 h amounted to 7.8 µM in data set [2] and 23 µM in data set [3]. Further, the inhibition in vivo at 100 mg/kg in the data set with Mus musculus worked out at 73%.

As for `CCc1ccc(N2CCN(c3nc(Nc4cc(C(C)(C)C)ccc4C)c4c(ncn4C)n3)CC2)cc1`, the IC50 in data set [4] was 3900 nM; in data set [5], 810 nM.

On to `COc1ccc(N2CCN(c3nc(Nc4cc(C(C)(C)C)ccc4C)c4[nH]ccc4n3)CC2(C)C)cc1`, for which the IC50 was determined as 3000 nM in data set [4] and 750 nM in data set [5].

Regarding `Cc1cc(OC2CCN(c3nc(Nc4cc(C(C)(C)C)ccc4C)c4c(ncn4C)n3)CC2)ncn1`, the IC50 was 13000 nM at Gamma-secretase, 120 nM in data set [4] and 16 nM in data set [5]. Further, the Ratio IC50 in data set [1] came to 810. Moreover, the concentration at 6 h in data set [2] worked out at 7.8 µM; in data set [3], 27 µM. The inhibition in vivo at 100 mg/kg in the data set with Mus musculus was found to be 69%.

For the compound `Cc1ccc(C(C)(C)C)cc1Nc1nc(N2CCN(Cc3ccncc3)CC2)nc2ncn(C)c12`, the IC50 at Gamma-secretase came out at 9100 nM; in data set [4], 130 nM; in data set [5], 12 nM. In addition, in data set [1], the Ratio IC50 was found to be 760.

With `COc1ccc(N2CCN(c3nc(Nc4cc(C(C)(C)C)ccc4C)c4c(n3)nc(C)n4C)CC2(C)C)cc1`, the half-maximal inhibitory concentration (IC50) at Gamma-secretase turned out to be 9200 nM; in data set [4], 160 nM; in data set [5] it was 22 nM. Further, in data set [1], the Ratio IC50 is 420.

Turning to `COc1ccc(N2CCCN(c3nc(Nc4cc(C(C)(C)C)ccc4C)c4c(ncn4C)n3)CC2)cc1`, the figures for the half-inhibitory concentration (IC50) in data set [4] and in data set [5] were 4100 nM and 380 nM, respectively.

As for `COc1ccc(N2CCN(c3nc(Nc4cc(C(C)(C)C)ccc4C)c4c(ncn4C)n3)CC2(C)C)cc1F`, the results for the half-inhibitory concentration (IC50) in data set [4] and in data set [5] were 270 nM and 21 nM, respectively.

Consider `Cc1ccc(C(C)(C)C)cc1Nc1nc(N2CCC(Oc3ccncc3)CC2)nc2ncn(C)c12`, for which the IC50 came out at 57 nM in data set [4] and 9.4 nM in data set [5].

Turning to `COc1ccc(N2CCN(c3nc(Nc4cc(C(C)(C)C)ccc4C)c4c(ncn4CC(F)(F)F)n3)CC2(C)C)cc1`, the IC50 in data set [4] was 420 nM; in data set [5] it was 55 nM.

As to `COc1ccc(N2CCN(c3nc(Nc4cc(C(C)(C)C)ccc4C)c4cccnc4n3)CC2(C)C)cc1`, the values for the IC50 in data set [4] and in data set [5] were 3100 nM and 210 nM, respectively.

Consider `Cc1ccc(C(C)(C)C)cc1Nc1nc(N2CCC(n3ccnc3)CC2)nc2ncn(C)c12`, for which the figures for the IC50 in data set [4] and in data set [5] were 1600 nM and 340 nM, respectively.

Take `COc1ccc(N2CCN(c3nc(Nc4cc(C(C)(C)C)ccc4C)c4ncn(C)c4n3)CC2(C)C)cc1`: the IC50 in data set [4] worked out at 2600 nM; in data set [5] it was 130 nM.

In the case of `COc1ccc(N2CCN(c3nc(Nc4cc(C(C)(C)C)ccc4C)c4c(ncn4C(C)C)n3)CC2(C)C)cc1`, the IC50 is 350 nM in data set [4] and 50 nM in data set [5].

`Cc1ccc(C(C)(C)C)cc1Nc1nc(-c2ccc(Cc3ccncc3)cc2)nc2ncn(C)c12`: the 50% inhibitory concentration (IC50) in data set [4] is 1100 nM; in data set [5], 800 nM.

Turning to `Cc1ccc(C(C)(C)C)cc1Nc1nc(NCCc2ccncc2)nc2ncn(C)c12`, the 50% inhibitory concentration (IC50) in data set [4] was 250 nM; in data set [5], 36 nM.

As to `COCCCCN1CCN(c2nc(Nc3cc(C(C)(C)C)ccc3C)c3c(ncn3C)n2)CC1`, the IC50 in data set [4] is 4700 nM; in data set [5], 870 nM.

On to `COc1ccc(NCCNc2nc(Nc3cc(C(C)(C)C)ccc3C)c3c(ncn3C)n2)cc1`, for which the concentration for half-maximal inhibition (IC50) worked out at 1100 nM in data set [4] and 500 nM in data set [5].

For `Cc1ccc(C(C)(C)C)cc1Nc1nc(N2CCN(CC3CCOCC3)CC2)nc2ncn(C)c12`, the IC50 in data set [4] was 8000 nM; in data set [5] it was 910 nM.

`COc1ccc(N2CCN(c3nc(Nc4cc(C(C)(C)C)ccc4C)c4c(n3)nc(C(F)(F)F)n4C)CC2(C)C)cc1`: the half-inhibitory concentration (IC50) on Gamma-secretase was more than 50000 nM; in data set [4], 1000 nM; in data set [5] it was 50 nM. In addition, in data set [1], the Ratio IC50 was more than 1000.

On to `Cc1ccc(C(C)(C)C)cc1Nc1nc(N2CCC(c3ccncc3)CC2)nc2ncn(C)c12`, for which the IC50 in data set [4] came to 1800 nM; in data set [5], 350 nM.

On to `COc1ccc(N2CCN(c3nc(Nc4cc(C(C)(C)C)ccc4C)c4[nH]cnc4n3)CC2(C)C)cc1`, for which the concentration for half-maximal inhibition (IC50) was 1000 nM in data set [4] and 68 nM in data set [5].

Regarding `COc1ccc(N2CCN(c3nc(Nc4cc(C(C)(C)C)ccc4C)c4c(ncn4C)n3)CC2)cc1`, the figures for the 50% inhibitory concentration (IC50) (on Gamma-secretase; in data set [4]; in data set [5]) were more than 50000 nM, 730 nM and 39 nM, respectively. In data set [1], the Ratio IC50 was more than 1300.

Consider `Cc1ccc(C(C)(C)C)cc1Nc1nc(N2CCC(Cc3ccncc3)CC2)nc2ncn(C)c12`, for which the IC50 turned out to be 310 nM in data set [4] and 30 nM in data set [5].

In the case of `Cc1ccc(C(C)(C)C)cc1Nc1nc(N2CCC(c3ccccc3)C2)nc2ncn(C)c12` (centres undefined), the half-inhibitory concentration (IC50) in data set [4] was found to be 630 nM; in data set [5] it was 54 nM.

As for `Cc1ccc(C(C)(C)C)cc1Nc1nc(NCCc2cnn(C)c2)nc2ncn(C)c12`, the half-maximal inhibitory concentration (IC50) was determined as 22000 nM on Gamma-secretase, 400 nM in data set [4] and 67 nM in data set [5]. Besides, the Ratio IC50 in data set [1] amounted to 330.

Consider `COc1ccc(N2CCN(c3nc(Nc4cc(C(C)(C)C)ccc4C)cc(OC)n3)CC2(C)C)cc1`, for which the IC50 in data set [4] was found to be 5700 nM; in data set [5], 260 nM.

A word on the IC50: it is the midpoint of a concentration-inhibition curve.
